In ChEMBL document CHEMBL5291721, “A preclinical secondary pharmacology resource illuminates target-adverse drug reaction associations of marketed drugs” (Nat Commun, 2023) one finds AC50 data, which are given here for 14 compounds.

Structures are written as SMILES. Where only a bound is given, the exact number is not on record here.

In assay [1] the target is T1, Glucocorticoid receptor (Homo sapiens, UniProt P04150).
T1 sequence (P04150 whole entry): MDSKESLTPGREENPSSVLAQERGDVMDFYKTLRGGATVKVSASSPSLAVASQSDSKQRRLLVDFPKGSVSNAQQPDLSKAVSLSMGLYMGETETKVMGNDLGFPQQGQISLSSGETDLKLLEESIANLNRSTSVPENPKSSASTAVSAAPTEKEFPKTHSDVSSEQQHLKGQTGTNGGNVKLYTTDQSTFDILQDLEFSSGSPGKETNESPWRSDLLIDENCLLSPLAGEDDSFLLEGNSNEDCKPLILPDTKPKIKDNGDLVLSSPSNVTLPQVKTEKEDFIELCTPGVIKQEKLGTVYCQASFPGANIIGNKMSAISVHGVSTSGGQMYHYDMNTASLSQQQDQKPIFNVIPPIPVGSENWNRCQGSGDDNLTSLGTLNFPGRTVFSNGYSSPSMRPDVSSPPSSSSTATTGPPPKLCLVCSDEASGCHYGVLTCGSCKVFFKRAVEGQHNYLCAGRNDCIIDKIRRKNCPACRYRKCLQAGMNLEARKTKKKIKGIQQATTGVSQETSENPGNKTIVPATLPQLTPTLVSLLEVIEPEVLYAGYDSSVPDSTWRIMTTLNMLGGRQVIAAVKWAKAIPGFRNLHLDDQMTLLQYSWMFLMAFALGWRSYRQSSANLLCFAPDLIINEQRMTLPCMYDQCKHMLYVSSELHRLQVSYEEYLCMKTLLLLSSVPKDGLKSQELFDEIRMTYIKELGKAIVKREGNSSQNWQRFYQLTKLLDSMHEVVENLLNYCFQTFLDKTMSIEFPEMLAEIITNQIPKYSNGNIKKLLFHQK

Assay [2] concerns the target T2, Gastrin/cholecystokinin type B receptor (Homo sapiens, UniProt P32239).
T2 sequence (P32239 whole entry): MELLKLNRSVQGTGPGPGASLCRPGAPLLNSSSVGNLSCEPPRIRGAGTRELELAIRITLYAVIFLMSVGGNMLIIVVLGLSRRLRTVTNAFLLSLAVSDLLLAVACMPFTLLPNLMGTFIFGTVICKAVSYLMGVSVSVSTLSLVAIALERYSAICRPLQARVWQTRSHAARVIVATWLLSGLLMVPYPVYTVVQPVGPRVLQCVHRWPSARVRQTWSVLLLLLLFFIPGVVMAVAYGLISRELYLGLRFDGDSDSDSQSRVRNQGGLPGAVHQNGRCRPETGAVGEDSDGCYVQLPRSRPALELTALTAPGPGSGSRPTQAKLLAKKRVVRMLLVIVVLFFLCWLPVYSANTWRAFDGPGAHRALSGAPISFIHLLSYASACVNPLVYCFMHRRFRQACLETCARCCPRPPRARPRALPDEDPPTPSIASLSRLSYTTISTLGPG

Assay [3] addresses Beta-2 adrenergic receptor (Homo sapiens, UniProt P07550).
Assay [4] concerns the target T3, Equilibrative nucleoside transporter 1 (Homo sapiens, UniProt Q99808).
T3 sequence (Q99808 whole entry): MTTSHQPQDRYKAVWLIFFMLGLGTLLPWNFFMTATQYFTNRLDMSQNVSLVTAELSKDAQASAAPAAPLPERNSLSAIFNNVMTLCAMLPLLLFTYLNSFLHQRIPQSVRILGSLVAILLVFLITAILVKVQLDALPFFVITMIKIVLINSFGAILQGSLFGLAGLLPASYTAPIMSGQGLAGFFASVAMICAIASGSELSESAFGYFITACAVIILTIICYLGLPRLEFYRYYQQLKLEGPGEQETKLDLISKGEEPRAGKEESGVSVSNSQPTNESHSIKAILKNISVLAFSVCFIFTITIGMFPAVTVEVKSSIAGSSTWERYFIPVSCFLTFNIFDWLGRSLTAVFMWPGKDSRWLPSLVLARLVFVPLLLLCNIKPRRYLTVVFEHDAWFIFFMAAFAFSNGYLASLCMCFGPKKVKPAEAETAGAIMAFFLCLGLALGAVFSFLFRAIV

In assay [5] the target is T4, Estrogen receptor (Homo sapiens, UniProt P03372).
T4 sequence (P03372 whole entry): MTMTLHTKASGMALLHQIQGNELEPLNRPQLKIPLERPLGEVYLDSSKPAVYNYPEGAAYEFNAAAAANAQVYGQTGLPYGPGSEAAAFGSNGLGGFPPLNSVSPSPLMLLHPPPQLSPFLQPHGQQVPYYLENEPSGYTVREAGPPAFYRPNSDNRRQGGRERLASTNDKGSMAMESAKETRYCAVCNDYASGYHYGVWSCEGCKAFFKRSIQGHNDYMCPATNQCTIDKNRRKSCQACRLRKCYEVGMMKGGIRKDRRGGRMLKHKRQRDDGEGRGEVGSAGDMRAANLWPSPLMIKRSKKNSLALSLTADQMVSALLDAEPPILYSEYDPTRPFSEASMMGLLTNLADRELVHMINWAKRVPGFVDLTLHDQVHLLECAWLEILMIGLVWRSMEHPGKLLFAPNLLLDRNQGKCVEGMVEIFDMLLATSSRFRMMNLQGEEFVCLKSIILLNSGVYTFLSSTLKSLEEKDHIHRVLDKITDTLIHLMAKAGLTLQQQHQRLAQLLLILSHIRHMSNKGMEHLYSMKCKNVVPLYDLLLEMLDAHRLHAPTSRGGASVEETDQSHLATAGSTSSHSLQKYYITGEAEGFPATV

Assay [6] deals with Melanocortin receptor 4 (Homo sapiens, UniProt P32245).
Melanocortin receptor 4, sequence (P32245 whole entry): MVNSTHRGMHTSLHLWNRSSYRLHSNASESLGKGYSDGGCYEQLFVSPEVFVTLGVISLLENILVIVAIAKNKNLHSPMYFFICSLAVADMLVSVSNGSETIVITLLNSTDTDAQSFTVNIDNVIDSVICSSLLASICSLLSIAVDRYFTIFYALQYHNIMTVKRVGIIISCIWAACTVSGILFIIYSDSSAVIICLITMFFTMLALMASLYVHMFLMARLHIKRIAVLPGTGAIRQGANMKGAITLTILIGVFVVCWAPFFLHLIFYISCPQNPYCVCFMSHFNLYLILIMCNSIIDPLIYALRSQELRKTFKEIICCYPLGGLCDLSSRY
The target of assay [7] is T5, Alpha-1A adrenergic receptor (Homo sapiens, UniProt P35348).
T5 sequence (P35348 whole entry): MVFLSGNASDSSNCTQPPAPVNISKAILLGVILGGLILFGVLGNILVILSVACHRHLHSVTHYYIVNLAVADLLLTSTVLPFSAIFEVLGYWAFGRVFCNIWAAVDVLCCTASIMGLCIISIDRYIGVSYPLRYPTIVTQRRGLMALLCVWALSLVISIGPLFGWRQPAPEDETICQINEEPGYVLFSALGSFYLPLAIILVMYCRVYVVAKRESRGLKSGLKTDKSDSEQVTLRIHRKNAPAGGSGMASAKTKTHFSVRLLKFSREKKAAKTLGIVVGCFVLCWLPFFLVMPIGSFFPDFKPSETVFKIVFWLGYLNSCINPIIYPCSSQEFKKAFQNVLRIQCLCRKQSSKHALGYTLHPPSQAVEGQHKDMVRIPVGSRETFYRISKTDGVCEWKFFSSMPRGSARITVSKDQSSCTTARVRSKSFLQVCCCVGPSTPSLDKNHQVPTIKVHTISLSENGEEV
Further: assay procedure not described here.

Beta-2 adrenergic receptor, sequence (P07550 whole entry): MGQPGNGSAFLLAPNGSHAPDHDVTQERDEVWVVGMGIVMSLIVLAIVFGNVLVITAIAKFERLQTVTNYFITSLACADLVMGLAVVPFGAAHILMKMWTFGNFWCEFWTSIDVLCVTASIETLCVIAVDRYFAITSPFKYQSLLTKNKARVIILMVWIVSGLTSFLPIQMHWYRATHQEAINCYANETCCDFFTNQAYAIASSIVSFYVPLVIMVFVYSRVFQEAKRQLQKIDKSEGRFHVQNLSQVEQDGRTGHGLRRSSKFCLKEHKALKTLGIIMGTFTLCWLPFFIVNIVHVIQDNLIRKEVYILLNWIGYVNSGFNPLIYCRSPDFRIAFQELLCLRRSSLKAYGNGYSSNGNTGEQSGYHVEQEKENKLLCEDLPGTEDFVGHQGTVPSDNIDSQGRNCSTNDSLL

Broadly, the AC50 is the midpoint of the concentration-response curve, whichever way the signal moves. A high value points to activity only at high concentration. With `Oc1cc(Cl)ccc1Oc1ccc(Cl)cc1Cl` [TRICLOSAN], the AC50 in assay [1] and in assay [2] was above 30 µM throughout.
Consider `CC(C)(Oc1ccc(Cl)cc1)C(=O)OCCOC(=O)c1cccnc1` [ETOFIBRATE], for which the AC50 in assay [1], in assay [3], in assay [4], in assay [5] and in assay [2] was above 30 µM each time.
`CN(C)CCC(O)(c1ccccc1)c1ccccc1Cl` (centres undefined) [CHLOPHEDIANOL]: the AC50 was above 10 µM in assay [1]; above 10 µM in assay [6]; above 10 µM in assay [3]; above 10 µM in assay [4]; above 10 µM in assay [5]; 11.8 µM in assay [7].
For `Cc1ccc(O)c([C@H](CCN(C(C)C)C(C)C)c2ccccc2)c1` [TOLTERODINE], the half-maximal activity concentration (AC50) in assay [7] was 2.74 µM.
Consider `COc1ccc(-c2cc(=S)ss2)cc1` [ANETHOLTRITHION], for which the half-maximal activity concentration (AC50) in assay [1] was above 30 µM; in assay [3] it was 13 µM; in assay [4] it was 5.4 µM; in assay [5], above 30 µM; in assay [2], 5.3 µM.
In the case of `C[C@]12C=CC(=O)C=C1CC[C@@H]1[C@@H]2[C@@H](O)C[C@@]2(C)[C@H]1CC[C@]2(O)C(=O)CO` [PREDNISOLONE], the AC50 in assay [6] is above 30 µM; in assay [3], above 10 µM; in assay [4], above 30 µM; in assay [5], above 30 µM; in assay [7] it was above 10 µM; in assay [2], above 30 µM.
Take `CN(C)[C@@H]1C(O)=C(C(=O)NCN2CCCC2)C(=O)[C@@]2(O)C(O)=C3C(=O)c4c(O)cccc4[C@@](C)(O)[C@H]3C[C@@H]12` [ROLITETRACYCLINE]: the AC50 is 25.8 µM in assay [1]; above 10 µM in assay [6]; above 10 µM in assay [3]; above 10 µM in assay [4]; above 10 µM in assay [7].
As for `C[C@]12C=CC(=O)C=C1C(Cl)=C[C@@H]1[C@@H]2[C@@H](O)C[C@@]2(C)[C@H]1CC[C@]2(O)C(=O)CO` [CLOPREDNOL], the AC50 is 0.032 µM in assay [1], above 30 µM in assay [4], above 30 µM in assay [5] and above 30 µM in assay [2].
As to `CC1(C)O[C@@H]2C[C@H]3[C@@H]4CCC5=CC(=O)C=C[C@]5(C)[C@@]4(F)[C@@H](O)C[C@]3(C)[C@]2(C(=O)CO)O1` [TRIAMCINOLONE ACETONIDE], the AC50 in assay [1] was 0.0031 µM; in assay [2] it was above 30 µM.
For the compound `C[C@]12CCC(=O)C=C1C=C[C@@H]1[C@@H]2CC[C@@]2(C)[C@H]1CC[C@@]21CCC(=O)O1` [CANRENONE], the AC50 in assay [1] was 1.3 µM; in assay [3], above 30 µM; in assay [4] it was above 30 µM; in assay [5], above 30 µM; in assay [2] it was above 30 µM.
As to `C[C@]12CCC(=O)C=C1[C@@H]1C[C@@H]1[C@H]1[C@@H]3[C@@H]4C[C@@H]4[C@@]4(CCC(=O)O4)[C@@]3(C)CC[C@@H]12` [DROSPIRENONE], the AC50 in assay [3], in assay [4] and in assay [2] was above 30 µM in each case.
Turning to `N=C(N)NC(=O)c1nc(Cl)c(N)nc1N` [AMILORIDE], the AC50 in assay [1] was above 30 µM; in assay [6], above 30 µM; in assay [3], above 30 µM; in assay [4], above 30 µM; in assay [5] it was above 30 µM; in assay [7], 2.69 µM. Further, the half-maximal activity concentration (AC50) in assay [2] was above 30 µM.
As to `COc1cccc2c1C(=O)c1c(O)c3c(c(O)c1C2=O)C[C@@](O)(C(=O)CO)C[C@@H]3O[C@H]1C[C@H](N)[C@H](O)[C@H](C)O1` [DOXORUBICIN], the AC50 was 2.59 µM in assay [1]; above 30 µM in assay [6]; above 10 µM in assay [3]; above 30 µM in assay [4]; 0.53 µM in assay [5]; above 10 µM in assay [7]. In assay [2], this compound yielded an AC50 above 30 µM.
As to `CCC(=O)c1ccc2c(c1)N(CC(C)N(C)C)c1ccccc1S2` (centres undefined) [PROPIOMAZINE], the AC50 in assay [1] was above 30 µM; in assay [6] it was above 10 µM; in assay [3], above 10 µM; in assay [4] it was above 10 µM; in assay [5], above 30 µM; in assay [7], 0.0294 µM.
